Source: patent publication US11781955B2, “Photo-controlled removal of targets in vitro and in vivo” (The United States of America, as represented by the …, priority 2014, dated 2023)
Read-outs that look alike come from different tables or passages of the source.

Experiments:
[1] = cited from earlier work
[2] = variety of solvents, including water; cited from earlier work
[3] = test system: A431-luc-GFP cells; assay: Flow cytometry binding to A431-luc-GFP cells with blocking; settings: 6 hr incubation at 37° C., blocking study
Description: (§1) Fluorescence arising from the cells after incubation with APC agents was measured using a flow cytometer (FACS Calibur, BD BioSciences, San Jose, CA, USA) and CellQuest software (BD BioSciences). Cells (1×10^5) were incubated with each APC for 6 hr at 37° C.

[4] = test system: Balb/3T3-RFP cells; assay: PIT on 3D spheroids, non-target cells; assay type: cell-based
Description: (§2) Spheroids were generated by the hanging drop method in which five thousand cells were suspended in 50 μL medium and then were dispensed into 96 well plates (3D Biomatrix Inc, Ann Arbor, MI, USA) following manufacturer's instructions (Sato et al., Mol. Oncol. 8, 620-632, 2014). Mixed spheroids were made with 5,000 cells of Balb/3T3-RFP and 500 cells of A431-luc-GFP (100:10)). After observation or treatment, spheroids were again incubated with the hanging drop plates containing new media. The volume of the spheroids was calculated with the formula: spheroid volume=4/3 π×radius^3
(§3) To detect the antigen specific localization of IR700 conjugates, fluorescence microscopy was performed (IX61 or IX81; Olympus America, Melville, NY, USA). Ten thousand cells were seeded on cover-glass-bottomed dishes and incubated for 24 hr. APC was then added to the culture medium at 10 μg/mL and incubated at 37° C. for 6 hr. The cells were then washed with PBS; Propidium Iodide (PI)(1:2000)(Life Technologies) and Cytox Blue (1:500)(Life Technologies), were used to detect dead cells. These were added to the media 30 min before observation. The cells were then exposed to NIR light and serial images were obtained. The filter was set to detect IR700 fluorescence with a 590-650 nm excitation filter, and a 665-740 nm band pass emission filter.

[5] = test system: A431-luc-GFP cells; assay: In vitro PIT on 2D culture (PI staining, luciferase activity, GFP fluorescence); assay type: cell-based
Description: as §3
(§4) Two hundred thousand A431-luc-GFP cells were seeded into 24 well plates or twenty million cells were seeded onto a 10 cm dish and incubated for 24 hr. Medium was replaced with fresh culture medium containing 10 μg/mL of tra-IR700 which was incubated for 6 hr at 37° C. After washing with PBS, phenol red free culture medium was added. Then, cells were irradiated with a NIR laser, which emits light at 670 to 710 nm wavelength (L690-66-60; Marubeni America Co., Santa Clara, CA, USA). The actual power density (mW/cm2) was measured with an optical power meter (PM 100, Thorlabs, Newton, NJ, USA).
(§5) The cytotoxic effects of PIT with APC were determined by the luciferase activity and flow cytometric PI staining or GFP. For luciferase activity, 150 μg/mL of D-luciferin-containing media (Gold Biotechnology, St Louis, MO, USA) was administered to PBS-washed cells 1 hr after PIT, and analyzed on a bioluminescence imaging (BLI) system (Photon Imager; Biospace Lab, Paris, France). […]
(§6) Two hundred thousand cells were seeded on cover-glass-bottomed dishes and incubated for 12 hr. […] The GFP/RFP intensity was evaluated with total pixels with the same threshold in the same field of each spheroid20. […] Fluorescence from treated cells was also measured using a flow cytometer (FACS Calibur).

[6] = test system: Balb/3T3-RFP cells; assay: PIT on mixed 2D cell culture, non-target cells; assay type: cell-based; settings: mixed 2D culture, repeated PIT 2 J/cm2
Description: as §4
as §5, with “France). For the flow cytometric assay, cells were trypsinized 1 hr after treatment and washed with PBS.” for “France).”
as §6

[7] = test system: A431-luc-GFP cells; assay: PIT on mixed 2D cell culture, target cells; assay type: cell-based; settings: mixed 2D culture, repeated PIT 2 J/cm2
Description: as §4
as §5, with “France). For the flow cytometric assay, cells were trypsinized 1 hr after treatment and washed with PBS.” for “France).”
as §6

[8] = test system: Balb/3T3-RFP cells; assay: In vivo PIT on mixed flank tumor, non-target cells; parameters: species or system mouse; settings: repeated PIT
Description: (§7) Four million A431-luc-GFP cells were injected subcutaneously in both (right and left symmetrically) flanks of the mice, for the monoculture tumor model. For the mixed tumor model, mixed cells of 4×10^6 A431-luc-GFP cells and 4×10^5 Balb/3T3-RFP cells (100:10) were injected subcutaneously in the both (right and left symmetrically) flanks.
(§8) Controls included (1) only NIR light exposure at 50 J/cm2 on day 1 and 100 J/cm2 on day 2 to the right tumor; (2) no treatment for the left tumor. These therapies were performed only once at day 7 after cell implantation. Mice were monitored daily, and serial image analysis was performed.
(§9) In vivo fluorescence images were obtained with a Pearl Imager (LI-COR Bioscience) for detecting IR700 fluorescence, and a Maestro Imager (CRi, Woburn, MA, USA) for GFP/RFP. […] The spectral fluorescence images consist of autofluorescence spectra and the spectra from GFP/RFP (tumor), which were then unmixed, based on the characteristic spectral pattern of GFP, using Maestro software (CRi). Regions of interest (ROIs) were manually drawn either on the flank tumor or over the abdominal region as appropriate to the model and fluorescence intensity was measured.
(§10) For BLI, D-luciferin (15 mg/mL, 200 μL) was injected intraperitoneally and the mice were analyzed with a Photon Imager for luciferase activity at day 6. […]

[9] = test system: A431-luc-GFP 3D spheroids; assay type: cell-based
Description: as §2, §3
3D reconstructions of the spheroids were obtained with a confocal laser microscope (LSM5 meta, Carl Zeiss, Jena, Germany) after incubation for 30 min with Hoechst 33342 (1:500)(Life Technologies). Sections of spheroids were first fixed with 3.7% formaldehyde in PBS for 10 min at room temperature followed by embedding with OCT (SAKURA, Tokyo, Japan). Then, they were frozen at −80° C., and sliced at 10 μm with a cryotome (LEICA CM3050 S, Leica microsystems, Wetzlar, Germany). Analysis of the images was performed with ImageJ software (http://rsb.info.nih.gov/ij/).

[10] = assay type: physicochemical
Description: The resulting solution was run on a 4-20% polyacrylamide gel, and stained with Comassie blue and visualized with light or fluorescence at 700 nm. Some samples were not exposed to NIR light. […] Some examples contained NaN3 (sodium azide), a reactive oxygen scavenger, or no oxygen (using an argon gas flash for 20 minutes). The resulting solution was run on a […] gel, and stained with Comassie blue and visualized with light or fluorescence at 700 nm. Some samples were not exposed to NIR light. […] Some examples contained excess oxygen (using 100% oxygen gas flash for 20 minutes). The resulting solution was run on a 4-20% SDS-PAGE gel, and stained with Comassie blue and visualized with light or fluorescence at 700 nm. Some samples were not exposed to NIR light.

[11] = test system: A431-luc-GFP flank tumor; assay: In vivo PIT on flank tumor; parameters: species or system mouse; settings: 100 μg, repeated PIT 50 J/cm2 day 1 and 100 J/cm2 day 2
Description: All in vivo procedures were conducted in compliance with the Guide for the Care and Use of Laboratory Animal Resources (1996), US National Research Council, and approved by the local Animal Care and Use Committee. Six- to eight-week-old female homozygote athymic nude mice were purchased from Charles River (NCI-Frederick). During procedures, mice were anesthetized with isoflurane.
Four million A431-luc-GFP cells were injected subcutaneously in both (right and left symmetrically) flanks of the mice, for the monoculture tumor model. […]
Controls included (1) only NIR light exposure at 50 J/cm2 on day 1 and 100 J/cm2 on day 2 to the right tumor; (2) no treatment for the left tumor. […] Mice were monitored daily, and serial image analysis was performed.
as §9, with “measured. […]” for “measured.”

[12] = test system: Balb/3T3-RFP cells; assay: Flow cytometry binding to Balb/3T3-RFP cells; settings: non-EGFR expressing cells
Description: as §1

[13] = test system: A431-luc-GFP cells; assay: In vivo PIT on mixed flank tumor, target cells; parameters: species or system mouse; settings: repeated PIT
Description: as §7, §8, §9, §10

[14] = test system: A431-luc-GFP cells; assay: PIT on mixed 3D spheroid, target cells; assay type: cell-based; settings: repeated PIT 2 J/cm2
Description: as §2, §3

[15] = Solubility of silicon phthalocyanines; assay type: physicochemical; settings: prior to exposure to NIR light (FIG. 5)
[16] = IR700 fluorescence after NIR light exposure; assay type: physicochemical; settings: 0.5 μM in DMF or PBS, laser 2-16 J/cm^2
Description: IR700 (0.5 μM) was suspended in DMF or PBS and exposed to NIR light with a laser (690 nm+/−4) at 2, 4, 8 or 16 J/cm^2. The resulting solution was visualized (in an eppendorf tube) with fluorescence at 700 nm. Some samples were not exposed to NIR light.

For `Oc1cccc(-c2c3nc(c(-c4cccc(O)c4)c4ccc([nH]4)c(-c4cccc(O)c4)c4nc(c(-c5cccc(O)c5)c5ccc2[nH]5)CC4)C=C3)c1` [Foscan®, meta-tetrahydroxyphenylchlorin], the extinction coefficient ([1]; at 652 nm) is listed as 22000 M⁻¹ cm⁻¹.
For `C=Cc1c(C)c2cc3nc(c(CC(=O)N[C@@H](CC(=O)[O-])C(=O)[O-])c4[nH]c(cc5nc(cc1[nH]2)C(C)=C5CC)c(C)c4C(=O)[O-])[C@@H](CCC(=O)[O-])[C@@H]3C.[Na+].[Na+].[Na+].[Na+]` [NPe6/Laserphyrin®, mono-L-aspartylchlorin e6], the extinction coefficient ([1]; at 654 nm) is listed as 40000 M⁻¹ cm⁻¹.
In the case of `O[Si]1(O)n2c3c4ccccc4c2N=C2N=C(N=c4c5ccccc5c(n41)=NC1=NC(=N3)c3ccccc31)c1ccccc12` [silicon phthalocyanine dihydroxide], the solubility [2] is given as “no measurable solubility”.
For Photofrin®, the extinction coefficient ([1]; at 630 nm) is listed as 1200 M⁻¹ cm⁻¹.
In the case of “Pan-IR700: Panitumumab (Vectibix), anti-human EGFR IgG2 MAb, conjugated to IR700; about 3 IR700 per antibody”, the “binding to cells (FACS)” value [3] is reported as “Specific binding”, the “effect on non-target cells” value ([4]; mixed 3D spheroid, repeated PIT 2 J/cm2) is reported as “without damaging non-target cells” and the “change of non-target-expressing 3D spheroid with PIT” value ([4]; spheroid of non-target cells only) is reported as “no remarkable change”. For the same compound, the “bioluminescence (BLI) and GFP fluorescence intensity after PIT” value ([5]; 2D culture, 1 hr after PIT) was “decrease in bioluminescence (BLI) and GFP fluorescence intensity also in a light-dose dependent manner”, the “cell killing (dead PI staining)” value ([5]; 2D culture, NIR light dose series) was “killed in a light-dose dependent manner” and the “cell death by microscopy” value ([5]; 6 hr incubation, NIR 2 J/cm2, 1 hr after PIT) was “Necrotic cell death was observed”. The “effect on non-target cells” value [6] was “without affecting the non-target cell growth”, the target cell elimination [7] was “complete target cell elimination” and the “damage to non-target cells in mixed tumors” value [8] was “minimal damage to non-target cells”. The “permeation into spheroids (IR700 fluorescence)” value [9] was “gradually permeated into spheroids from the perimeter”, the “eradication of cells in 3D spheroid” value ([9]; daily repeated PIT) was “complete eradication of A431-luc-GFP cells within spheroids” and the “cell death in 3D spheroid after PIT” value ([9]; single PIT, 2 J/cm2) was “necrotic cell death in the APC-bound layer of A431-luc-GFP cells”. The “spheroid size after PIT” value ([9]; target 3D spheroid) was “clearly decreased in size”, the “degradation by NIR in excess oxygen” value [10] was “less degradation” and the “oxygen dependence of cleavage by NIR” value ([10]; 8 or 16 J/cm^2, no treatment, NaN3 or no oxygen (argon)) was “oxygen independent”. The “cleavage of conjugate after NIR light” value ([10]; PBS, LED or laser 690 nm, 2-16 J/cm^2) was “broken down or cleaved after exposure to NIR light”, the “GFP signal and luciferase activity of tumor” value [11] was “disappearance of both GFP signal and luciferase activity” and the “binding to cells (FACS)” value [12] was “no binding”. The “target cell elimination from mixed tumors” value [13] was “complete elimination of target-expressing cells from mixed tumors in vivo” and the target cell elimination [14] was “complete target cell elimination from the mixed 3D cell culture”.
In the case of IRDye® 700DX [IR700], the extinction coefficient ([1]; at the absorption maximum of 689 nm) is listed as 210000 M⁻¹ cm⁻¹, the solubility [15] is listed as “can dissolve in different aqueous and organic solvents” and the “fluorescence after NIR exposure (photobleaching)” value [16] is listed as “still fluorescent even after exposure to strong NIR light”.
